Data set [1] addresses T1, CMKLR1 (Homo sapiens, UniProt Q99788).
T1 sequence (Q99788 1-373): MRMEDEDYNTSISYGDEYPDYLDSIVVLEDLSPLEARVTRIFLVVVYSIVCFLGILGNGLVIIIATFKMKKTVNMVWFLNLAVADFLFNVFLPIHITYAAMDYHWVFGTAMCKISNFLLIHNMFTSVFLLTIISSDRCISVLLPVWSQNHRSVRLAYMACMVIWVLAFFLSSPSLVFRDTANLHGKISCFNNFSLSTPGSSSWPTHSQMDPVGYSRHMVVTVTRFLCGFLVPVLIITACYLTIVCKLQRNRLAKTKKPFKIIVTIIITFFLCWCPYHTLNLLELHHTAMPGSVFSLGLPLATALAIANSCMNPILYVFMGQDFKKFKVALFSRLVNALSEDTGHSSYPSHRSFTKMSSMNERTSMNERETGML
Put plainly: Ca2+ mobilization assay (G protein-mediated signaling).

The nature of data set [2]: Plasma stability assay of Tam-labeled peptides. The note with it: for half-life: human; for stability in blood plasma: over a time period of 24 h.
The target in data set [3] is T1, CMKLR1. Put plainly: BRET-based arrestin 3 recruitment assay. The note with it: for arrestin 3 recruitment to the CMKLR1 (in words): BRET, compared with chemerin-9; for Emax: read-out: Emax [%] ± SEM.
The mark [4] stands for this setting: COS-7 cells transfected with hCMKLR1_eYFP_GαΔ6qi4myr, normalized to chemerin-9.

Entries after “also recorded” stand apart in the source; their conditions may differ. *1 amine or outer side, *2 acyl side, *3 side chain or, on linkers, in order; H or OH if unused. Where a SMILES comes first, the peptide text is derived from it. Bridges are numbered along the chain shown (N, C = ends). [ ]: non-standard residue; d: D form. The star is where a group is joined. ξ: configuration not given here. X1 = CN(C)c1ccc2c(-c3cc(C(=O)*)ccc3C(=O)[O-])c3ccc(=[N+](C)C)cc-3oc2c1; X2 = CN(C)c1ccc2c(-c3cc(C(=O)*)ccc3C(=O)O)c3ccc(=[N+](C)C)cc-3oc2c1; PEG4 = NCCOCCOCCOCCOCCC(=O)O; d(hCys) = N[C@H](CCS)C(=O)O; hCys = N[C@@H](CCS)C(=O)O; ξF = NC(Cc1ccccc1)C(=O)O; CH2 = C([*:1])[*:2]; ξC = NC(CS)C(=O)O

Turning to `C[C@@H]1NC(=O)[C@H](Cc2ccccc2)NC(=O)[C@H](CCC(N)=O)NC(=O)[C@H](NC(=O)[C@@H]2CCCN2C(=O)[C@H](Cc2ccccc2)NC(=O)[C@@H](N)Cc2ccc(O)cc2)CSSC[C@@H](C(=O)O)NC(=O)[C@H](Cc2ccccc2)NC1=O` [$$ 4, [c4,C9]-chemerin-9, reference compound] (H-YFP[dC]QFAFC-OH; disulfide 4-9), at CMKLR1 [1] (setting [4]), it took 64 nM to reach a half-maximal effect (EC50) and the “pEC50 ± SEM” value is listed as 7.192 ± 0.147.
For the molecule `C[C@@H]1NC(=O)[C@H](Cc2ccccc2)NC(=O)[C@H](CCC(N)=O)NC(=O)[C@H](NC(=O)[C@@H]2CCCN2C(=O)[C@H](Cc2ccccc2)NC(=O)[C@H](Cc2ccc(O)cc2)NC(=O)c2ccc(C(=O)O)c(-c3c4ccc(=[N+](C)C)cc-4oc4cc(N(C)C)ccc34)c2)CSSC[C@@H](C(=O)O)NC(=O)[C@H](Cc2ccccc2)NC1=O` [$$ 5, Tam-[c4,C9]-chemerin-9] (X2-YFP[dC]QFAFC-OH; disulfide 4-9), in data set [2] (human blood plasma), the half-life (commonly the time in which the quantity being followed falls by half) was greater than 24 h. For the same molecule, in data set [2], the “stability in blood plasma” value is recorded as “completely stable”.
As for `NC(=O)CC[C@@H]1NC(=O)[C@H](NC(=O)[C@@H]2CCCN2C(=O)[C@H](Cc2ccccc2)NC(=O)[C@@H](N)Cc2ccc(O)cc2)CSSC[C@@H](C(=O)N[C@@H](Cc2ccccc2)C(=O)N[C@@H](CO)C(=O)O)NC(=O)[C@H](Cc2ccccc2)NC1=O` [$$ 6, [c4,C7]-chemerin-9, reference compound] (H-YFP[dC]QFCFS-OH; disulfide 4-7), it took 62.5 nM to reach a half-maximal effect on CMKLR1 [1] (EC50).
With `C[C@@H]1NC(=O)[C@H](Cc2ccccc2)NC(=O)[C@H](CCC(N)=O)NC(=O)[C@H](NC(=O)[C@@H]2CCCN2C(=O)[C@H](Cc2ccccc2)NC(=O)[C@@H](N)Cc2ccc(O)cc2)CSCSC[C@@H](C(=O)O)NC(=O)[C@H](Cc2ccccc2)NC1=O` [$$ 7, [c4,C9-TA]-chemerin-9] (H-YFP[dC]QFAFC-OH; linker 4-9 via CH2), the “pEC50 ± SEM” value on CMKLR1 [1] (setting [4]) is 7.888 ± 0.130.
In data set [2] (plasma), `C[C@@H]1NC(=O)[C@H](Cc2ccccc2)NC(=O)[C@H](CCC(N)=O)NC(=O)[C@H](NC(=O)[C@@H]2CCCN2C(=O)[C@H](Cc2ccccc2)NC(=O)[C@H](Cc2ccc(O)cc2)NC(=O)c2ccc(C(=O)[O-])c(-c3c4ccc(=[N+](C)C)cc-4oc4cc(N(C)C)ccc34)c2)CSCSC[C@@H](C(=O)O)NC(=O)[C@H](Cc2ccccc2)NC1=O` [$$ 8, Tam-[c4,C9-TA]-chemerin-9] (X1-YFP[dC]QFAFC-OH; linker 4-9 via CH2) showed a half-life greater than 24 h. Moreover, the “stability in blood plasma” value in data set [2] is on record as “completely stable”.
Regarding `C[C@@H]1NC(=O)[C@H](Cc2ccccc2)NC(=O)[C@H](CCC(N)=O)NC(=O)[C@H](NC(=O)[C@@H]2CCCN2C(=O)[C@H](Cc2ccccc2)NC(=O)[C@H](N)Cc2ccc(O)cc2)CSCSCC[C@@H](C(=O)O)NC(=O)[C@H](Cc2ccccc2)NC1=O` [$$ 11, [y1,c4,X9-TA]-chemerin-9] (H-[dY]FP[dC]QFAF[hCys]-OH; linker 4-9 via CH2), on CMKLR1 [1] (setting [4]), the “pEC50 ± SEM” value was determined as 7.553 ± 0.067.
In turn, `CN(C)c1ccc2c(-c3cc(C(=O)NCCCC[C@H]4NC(=O)C(Cc5ccccc5)NC(=O)[C@@H](CCC(N)=O)NC(=O)[C@H](NC(=O)[C@@H]5CCCN5C(=O)[C@@H](Cc5ccccc5)NC(=O)[C@H](N)Cc5ccc(O)cc5)CSSCC(C(=O)O)NC(=O)[C@@H](Cc5ccccc5)NC4=O)ccc3C(=O)[O-])c3ccc(=[N+](C)C)cc-3oc2c1` (some centres unmarked) [$$ 12, [y1,c4,K7(Tam),C9]-chemerin-9] (H-[dY][dF]P[dC][dQ][ξF][dK](X1)[dF][ξC]-OH; disulfide 4-9) registered a half-life in data set [2] (human blood plasma) greater than 24 h. The “stability in blood plasma” value in data set [2] was “equally stable”.
With `C[C@@H]1NC(=O)[C@H](Cc2ccccc2)NC(=O)[C@H](CCC(N)=O)NC(=O)[C@H](NC(=O)[C@@H]2CCCN2C(=O)[C@H](Cc2ccccc2)NC(=O)[C@@H](N)Cc2ccc(O)cc2)CCSSC[C@@H](C(=O)O)NC(=O)[C@H](Cc2ccccc2)NC1=O` [$$ 13, [x4,C9]-chemerin-9] (H-YFP[d(hCys)]QFAFC-OH; disulfide 4-9), at CMKLR1 [3], the “arrestin 3 recruitment to the CMKLR1 (in words)” value (“arrestin 3 recruitment” below) is “only slightly shifted EC50 and Emax values; also recorded: slight loss of activity”; the Emax (as a rule, the size of the effect at its maximum, as opposed to the concentration needed) came out at 86.8 ± 4%.
As to `C[C@@H]1NC(=O)[C@H](Cc2ccccc2)NC(=O)[C@H](CCC(N)=O)NC(=O)[C@H](NC(=O)[C@@H]2CCCN2C(=O)[C@H](Cc2ccccc2)NC(=O)[C@@H](N)Cc2ccc(O)cc2)CCSSC[C@@H](C(=O)O)NC(=O)[C@H](Cc2c[nH]c3ccccc23)NC1=O` [$$ 14, [x4,W8,C9]-chemerin-9] (H-YFP[d(hCys)]QFAWC-OH; disulfide 4-9), the “G protein signaling activity (in words)” value at CMKLR1 [1] (Ca2+ mobilization assay) is “increased the activity even more”. The EC50 – broadly, the concentration giving half of the maximal effect – at CMKLR1 [1] (EC50, COS-7 cells transfected with hCMKLR1_eYFP_GαΔ6qi4myr, normalized to chemerin-9) was 3 nM; on CMKLR1 [1] (pEC50 ± SEM, COS-7 cells transfected with hCMKLR1_eYFP_GαΔ6qi4myr, normalized to chemerin-9), 3.17 nM; on CMKLR1 [3] it was 158 nM. The “arrestin 3 recruitment” value at CMKLR1 [3] is listed as “accepted; also recorded: no impact”. Besides, the Emax on CMKLR1 [3] turned out to be 97 ± 10%.
For the molecule `C[C@@H]1NC(=O)[C@H](Cc2ccccc2)NC(=O)[C@H](CCC(N)=O)NC(=O)[C@H](NC(=O)[C@@H]2CCCN2C(=O)[C@H](Cc2ccccc2)NC(=O)[C@H](Cc2ccc(O)cc2)NC(=O)CCOCCOCCOCCOCCN)CCSSC[C@@H](C(=O)O)NC(=O)[C@H](Cc2ccccc2)NC1=O` [$$ 16, EG4-[x4,C9]-chemerin-9] (H-[PEG4]YFP[d(hCys)]QFAFC-OH; disulfide 5-10), on CMKLR1 [3], the “arrestin 3 recruitment” value is recorded as “accepted; also recorded: no impact” and the Emax amounted to 102 ± 5%.
Turning to `C[C@@H]1NC(=O)[C@H](Cc2ccccc2)NC(=O)[C@H](CCC(N)=O)NC(=O)[C@H](NC(=O)[C@@H]2CCCN2C(=O)[C@H](Cc2ccccc2)NC(=O)[C@H](Cc2ccc(O)cc2)NC(=O)CCOCCOCCOCCOCCNC(=O)c2ccc(C(=O)[O-])c(-c3c4ccc(=[N+](C)C)cc-4oc4cc(N(C)C)ccc34)c2)CCSSC[C@@H](C(=O)O)NC(=O)[C@H](Cc2ccccc2)NC1=O` [$$ 17, Tam-EG4-[x4,C9]-chemerin-9] ({X1-PEG4}-YFP[d(hCys)]QFAFC-OH; disulfide 4-9), the half-life in data set [2] (human blood plasma) was greater than 48 h.
For the molecule `C[C@@H]1NC(=O)[C@H](Cc2ccccc2)NC(=O)[C@H](CCC(N)=O)NC(=O)[C@H](NC(=O)[C@@H]2CCCN2C(=O)[C@H](Cc2ccccc2)NC(=O)[C@H](Cc2ccc(O)cc2)NC(=O)CCOCCOCCOCCOCCNC(=O)c2ccc(C(=O)[O-])c(-c3c4ccc(=[N+](C)C)cc-4oc4cc(N(C)C)ccc34)c2)CCSSC[C@@H](C(=O)O)NC(=O)[C@H](Cc2c[nH]c3ccccc23)NC1=O` [$$ 19, Tam-EG4-[x4,W8,C9]-chemerin-9] ({X1-PEG4}-YFP[d(hCys)]QFAWC-OH; disulfide 4-9), in data set [2] (human blood plasma), the half-life is greater than 48 h.
For the molecule `CC(=O)NCC(=O)N[C@@H](Cc1ccccc1)C(=O)N[C@@H](CC(C)C)C(=O)NCC(=O)N[C@@H](Cc1ccc(O)cc1)C(=O)N[C@@H](Cc1ccccc1)C(=O)N1CCC[C@H]1C(=O)N[C@@H]1CCSSC[C@@H](C(=O)O)NC(=O)[C@H](Cc2ccccc2)NC(=O)[C@H](C)NC(=O)[C@H](Cc2ccccc2)NC(=O)[C@H](CCC(N)=O)NC1=O` [$$ 20, GFLG-[x4,C9]-chemerin-9] (Ac-GFLGYFP[d(hCys)]QFAFC-OH; disulfide 8-13), the concentration for a half-maximal effect (EC50) was 21.1 nM at CMKLR1 [1]; 100 nM on CMKLR1 [3] (EC50, HEK293 cells, CMKLR1-eYFP and Rluc8-arrestin 3, 15 min after agonist addition). Also, on CMKLR1 [3], the Emax turned out to be 89 ± 5%.

The values above are taken from patent publication US20230303647A1, “CYCLIC CHEMERIN-9 DERIVATIVES” (priority 2020, published 2023).
